From US12576050B2, “Dosage regime” (priority 2018, dated 2026)

Columns and labels:
[1] = system: CF patient; assay: Single patient treated with cysteamine 450 mg bi-daily plus antibiotics; format: in vivo; conditions: cysteamine 450 mg BID with Tobramycin and Colomycin, one patient
Experimental: Patient trialled with combination treatment of 450 mg bi-daily in combination with antibiotics. […] As a result, the patient was taken off regimen of ceftolozane+tazobactam, Colomycin and Pulmozyme and put onto 14-day course of cysteamine 450 mg BID (bi-daily) with Tobramycin and Colomycin. Patient was discharged from hospital 3-days later.

[2] = system: people with CF experiencing an acute exacerbation; assay: CARE-CF-1 trial: PROM CFQ-R score; format: in vivo; conditions: 450 doses, day 14; greatest for 450 BID
[3] = system: P. aeruginosa isolate from CF sputum; assay: Kirby Bauer antibiotic disc sensitivity on agar containing cysteamine; format: cell-based
Text: Legend: […], I, R=sensitive, intermediate or resistant by interpretive criteria for antibiotic disc sensitivity testing method against P. aeruginosa. No criteria for sulphonamides against P. aeruginosa, however Bactrim/co-trimoxazole sometimes used in CF therefore included here with interpretive criteria for Stenotrophomonas. *=p<0.05 two-way ANOVA Sidak's multiple comparison test.
As a result, the patient was taken off regimen of ceftolozane+tazobactam, Colomycin and Pulmozyme and put onto 14-day course of cysteamine 450 mg BID (bi-daily) with Tobramycin and Colomycin. Patient was discharged from hospital 3-days later.

[4] = system: P. aeruginosa isolated from sputum from a CF patient; assay: Alginate production by sputum isolates (Alcian Blue assay); format: cell-based
Experimental: Isolate A produced 19.93 μg/ml (+/−1.9 SD) alginate and had mucoid phenotype. Isolate B produced 4.47 μg/ml (+/−2.39 SD) with dry colonies.
Results provided in FIG. 5 were derived from a study that conforms to the general quantitative assay described in J. Phycol. 13, 345-348 (1977) “Alcian Blue: A Quantitative Aqueous Assay for Algal Acid and Sulfated Polysaccharides”; J Ramus.

[5] = system: Gram −ve organisms in sputum; assay: CARE-CF-1 trial: sputum bacterial load; format: in vivo, people with CF; conditions: for Sputum Gram −ve organisms, Day 21 change from baseline, mean: 14 day course; for Sputum Gram −ve organisms, Day 14 LSMD (cysteamine − placebo): MMRM, ITT; for Sputum Gram −ve organisms, D 14 mean: with standard of care
[6] = system: people with CF experiencing an acute exacerbation; conditions: adjunct to treatment of exacerbations, 14 days
[7] = system: people with CF experiencing an acute exacerbation; assay: CARE-CF-1 trial: PROM CFRSD-CRISS score; format: in vivo; conditions: for CFRSD-CRISS score, Day 7 LSMD (cysteamine − placebo) / CFRSD-CRISS score, Day 14 LSMD (cysteamine − placebo): MMRM, ITT
[8] = system: blood leukocytes; assay: CARE-CF-1 trial: blood leukocyte count (WCC); format: in vivo, people with CF

NCCS [Cysteamine, cysteamine]
Time to discharge from hospital [1]: 3 days | CFQR PROM score [2]: non-significant improvements | Zone of clearance and sensitivity to sulphonamides ([3]; Müller Hinton agar containing cysteamine compared with agar alone): significant increase | Sensitivity to various antibiotics in combination with cysteamine ([3]; in vitro, patient isolate (FIG. 8)): increased sensitivity | Production of alginate/extracellular polysaccharide in mucoid strains ([4]; exposure to cysteamine): inhibited | Alginate production ([4]; isolate B, day 14 of 450 mg BID cysteamine, 120 h growth in MHB at 37° C., day 0 isolate A 19.93 μg/ml, mucoid): 4.47 µg/mL | Colony phenotype of isolate ([4]; isolate B, day 14 of 450 mg BID cysteamine, day 0 isolate mucoid): dry colonies | Sputum Gram −ve organisms, Day 21 change from baseline, mean ([5]; 150 mg TID): −0.26 log10 CFU/ml | Sputum Gram −ve organisms, Day 14 LSMD (cysteamine − placebo) ([5]; 150 mg TID, p 0.9753): 0.03 log10 CFU/ml | Sputum Gram −ve organisms, Day 21 LSMD (cysteamine − placebo) ([5]; 150 mg TID, p 0.9511): 0.05 log10 CFU/ml | Sputum Gram −ve organisms, Day 14 change from baseline, mean ([5]; 150 mg tid): −1.24 log10 CFU/ml | Sputum Gram −ve organisms, D 14 mean ([5]; 150 mg tid for 14 days): 5.08 log10 CFU/ml | Sputum Gram −ve organisms, D 14 Δ −placebo mean ([5]; 150 mg tid, p 0.97): 0.03 log10 CFU/ml | Sputum Gram −ve organisms, Day 21 change from baseline, mean ([5]; 300 mg TID): −0.87 log10 CFU/ml | Sputum Gram −ve organisms, Day 14 LSMD (cysteamine − placebo) ([5]; 300 mg TID, p 0.3683): 0.82 log10 CFU/ml | Sputum Gram −ve organisms, Day 21 LSMD (cysteamine − placebo) ([5]; 300 mg TID, p 0.7802): −0.24 log10 CFU/ml | Sputum Gram −ve organisms, Day 14 change from baseline, mean ([5]; 300 mg tid): −0.98 log10 CFU/ml | Sputum Gram −ve organisms, D 14 mean ([5]; 300 mg tid for 14 days): 6.14 log10 CFU/ml | Sputum Gram −ve organisms, D 14 Δ −placebo mean ([5]; 300 mg tid, p 0.36): 0.87 log10 CFU/ml | Sputum Gram −ve organisms, Day 21 change from baseline, mean ([5]; 450 mg BID): −1.04 log10 CFU/ml | Sputum Gram −ve organisms, Day 14 LSMD (cysteamine − placebo) ([5]; 450 mg BID, p 0.4165): 0.72 log10 CFU/ml | Sputum Gram −ve organisms, Day 21 LSMD (cysteamine − placebo) ([5]; 450 mg BID, p 0.6117): −0.41 log10 CFU/ml | Sputum Gram −ve organisms, Day 21 change from baseline, mean ([5]; 450 mg QD): −1.22 log10 CFU/ml | Sputum Gram −ve organisms, Day 14 LSMD (cysteamine − placebo) ([5]; 450 mg QD, p 0.4445): 0.72 log10 CFU/ml | Sputum Gram −ve organisms, Day 21 LSMD (cysteamine − placebo) ([5]; 450 mg QD, p 0.0799): −1.56 log10 CFU/ml | Sputum Gram −ve organisms, Day 14 LSMD (cysteamine QD/BID − TID) ([5]; 450 mg TDD: 450 mg QD − 150 mg TID): 0.69 log10 CFU/ml | Sputum Gram −ve organisms, Day 21 change from baseline, mean ([5]; 450 mg TID): 0.93 log10 CFU/ml | Sputum Gram −ve organisms, Day 14 LSMD (cysteamine − placebo) ([5]; 450 mg TID, p 0.0602): 1.57 log10 CFU/ml | Sputum Gram −ve organisms, Day 21 LSMD (cysteamine − placebo) ([5]; 450 mg TID, p 0.2130): 0.99 log10 CFU/ml | Sputum Gram −ve organisms, Day 14 change from baseline, mean ([5]; 450 mg bid): −1.32 log10 CFU/ml | Sputum Gram −ve organisms, D 14 mean ([5]; 450 mg bid for 14 days): 6.25 log10 CFU/ml | Sputum Gram −ve organisms, D 14 Δ −placebo mean ([5]; 450 mg bid, p 0.61): 0.46 log10 CFU/ml | Sputum Gram −ve organisms, Day 14 change from baseline, mean ([5]; 450 mg qd): 0.12 log10 CFU/ml | Sputum Gram −ve organisms, D 14 mean ([5]; 450 mg qd for 14 days): 4.49 log10 CFU/ml | Sputum Gram −ve organisms, D 14 Δ −placebo mean ([5]; 450 mg qd, p 0.36): 0.90 log10 CFU/ml | Sputum Gram −ve organisms, Day 14 change from baseline, mean ([5]; 450 mg tid): 0.33 log10 CFU/ml | Sputum Gram −ve organisms, D 14 mean ([5]; 450 mg tid for 14 days): 6.27 log10 CFU/ml | Sputum Gram −ve organisms, D 14 Δ −placebo mean ([5]; 450 mg tid, p 0.059): 1.66 log10 CFU/ml | Sputum Gram −ve organisms, Day 14 LSMD (cysteamine QD/BID − TID) ([5]; 900 mg TDD: 450 mg BID − 300 mg TID): −0.11 log10 CFU/ml | Safety and tolerability [6]: safe and reasonably well tolerated | CFRSD-CRISS score, Day 7 change from baseline, mean ([7]; 150 mg TID): −11.9 | CFRSD-CRISS score, Day 7 LSMD (cysteamine − placebo) ([7]; 150 mg TID, p 0.1991): 4.25 | CFRSD-CRISS score, Day 14 LSMD (cysteamine − placebo) ([7]; 150 mg TID, p 0.9098): 0.57 | CFRSD-CRISS score, D 14 mean ([7]; 150 mg tid): 32.4 | CFRSD-CRISS score, Day 14 change from baseline, mean ([7]; 150 mg tid): −15.5 | CFRSD-CRISS score, D 14 Δ −placebo mean ([7]; 150 mg tid, p 0.87): 0.8 | CFRSD-CRISS score, Day 7 change from baseline, mean ([7]; 300 mg TID): −10.5 | CFRSD-CRISS score, Day 7 LSMD (cysteamine − placebo) ([7]; 300 mg TID, p 0.0474): 6.48 | CFRSD-CRISS score, Day 14 LSMD (cysteamine − placebo) ([7]; 300 mg TID, p 0.6439): 2.32 | CFRSD-CRISS score, D 14 mean ([7]; 300 mg tid): 34.2 | CFRSD-CRISS score, Day 14 change from baseline, mean ([7]; 300 mg tid): −14.8 | CFRSD-CRISS score, D 14 Δ −placebo mean ([7]; 300 mg tid, p 0.70): 1.9 | CFRSD-CRISS score, Day 7 change from baseline, mean ([7]; 450 mg BID): −19.1 | CFRSD-CRISS score, Day 14 LSMD (cysteamine − placebo) ([7]; 450 mg BID, p 0.0496): −9.85 | CFRSD-CRISS score, Day 7 LSMD (cysteamine − placebo) ([7]; 450 mg BID, p 0.8081): −0.78 | CFRSD-CRISS score, Day 7 change from baseline, mean ([7]; 450 mg QD): −18.1 | CFRSD-CRISS score, Day 14 LSMD (cysteamine − placebo) ([7]; 450 mg QD, p 0.1814): −7.36 | CFRSD-CRISS score, Day 7 LSMD (cysteamine − placebo) ([7]; 450 mg QD, p 0.7569): −1.10 | CFRSD-CRISS score, Day 14 LSMD (cysteamine QD/BID − TID) ([7]; 450 mg TDD: 450 mg QD − 150 mg TID, p 0.1725): −7.94 | CFRSD-CRISS score, Day 7 change from baseline, mean ([7]; 450 mg TID): −17.8 | CFRSD-CRISS score, Day 14 LSMD (cysteamine − placebo) ([7]; 450 mg TID, p 0.2097): −6.27 | CFRSD-CRISS score, Day 7 LSMD (cysteamine − placebo) ([7]; 450 mg TID, p 0.7324): 1.11 | Improvements in CFRSD-CRISS domains ([7]; 450 mg bi-daily compared with the other doses (FIG. 6)): best improvements | CFRSD-CRISS score, D 14 mean ([7]; 450 mg bid): 25.4 | CFRSD-CRISS score, Day 14 change from baseline, mean ([7]; 450 mg bid): −28.1 | CFRSD-CRISS score, D 14 Δ −placebo mean ([7]; 450 mg bid, p 0.035): −10.6 | CFRSD-CRISS score, D 14 mean ([7]; 450 mg qd): 26.1 | CFRSD-CRISS score, Day 14 change from baseline, mean ([7]; 450 mg qd): −24.3 | CFRSD-CRISS score, D 14 Δ −placebo mean ([7]; 450 mg qd, p 0.090): −9.0 | CFRSD-CRISS score, D 14 mean ([7]; 450 mg tid): 31.6 | CFRSD-CRISS score, Day 14 change from baseline, mean ([7]; 450 mg tid): −23.9 | CFRSD-CRISS score, D 14 Δ −placebo mean ([7]; 450 mg tid, p 0.34): −4.8 | CFRSD-CRISS score, Day 14 LSMD (cysteamine QD/BID − TID) ([7]; 900 mg TDD: 450 mg BID − 300 mg TID, p 0.0222): −12.17 | CRISS score at day 14 compared with standard of care plus placebo ([7]; 450 BID dose): significant improvement over and above placebo | Potentiation of other antibiotics (CRISS, post-hoc) ([7]; 450 BID versus 900 mg as 3 times 300 mg (FIG. 9)): potentiates other antibiotics more than the 300 mg three times a day dosage regime | CRISS versus placebo group across all concomitant antibiotics examined ([7]; 450 dose regimen, including 450 BID, post-hoc): non-significant improvements | CRISS versus placebo, patients not receiving azithromycin ([7]; across all cysteamine treatment regimens, post-hoc): significantly better than placebo | CRISS score at day 14 compared with placebo ([7]; other 450 doses (qd, tid)): non-significant reductions | Blood Leukocyte Count, D 14 mean ([8]; 150 mg tid): 9.71e+09 L⁻¹ | Blood Leukocyte Count, D 14 Δbaseline mean ([8]; 150 mg tid): -2.64e+09 L⁻¹ | Blood Leukocyte Count, D 14 Δ −placebo mean ([8]; 150 mg tid, p 1.00): 0 L⁻¹ | Blood Leukocyte Count, D 14 mean ([8]; 300 mg tid): 1.055e+10 L⁻¹ | Blood Leukocyte Count, D 14 Δbaseline mean ([8]; 300 mg tid): -1.9e+08 L⁻¹ | Blood Leukocyte Count, D 14 Δ −placebo mean ([8]; 300 mg tid, p 0.84): -2.4e+08 L⁻¹ | Blood Leukocyte Count, D 14 mean ([8]; 450 mg bid): 7.45e+09 L⁻¹ | Blood Leukocyte Count, D 14 Δbaseline mean ([8]; 450 mg bid): -3.41e+09 L⁻¹ | Blood Leukocyte Count, D 14 Δ −placebo mean ([8]; 450 mg bid, p 0.033): -2.43e+09 L⁻¹ | Blood Leukocyte Count, D 14 mean ([8]; 450 mg qd): 8.52e+09 L⁻¹ | Blood Leukocyte Count, D 14 Δbaseline mean ([8]; 450 mg qd): -2.22e+09 L⁻¹ | Blood Leukocyte Count, D 14 Δ −placebo mean ([8]; 450 mg qd, p 0.22): -1.49e+09 L⁻¹ | Blood Leukocyte Count, D 14 mean ([8]; 450 mg tid): 9.79e+09 L⁻¹ | Blood Leukocyte Count, D 14 Δbaseline mean ([8]; 450 mg tid): -4.06e+09 L⁻¹ | Blood Leukocyte Count, D 14 Δ −placebo mean ([8]; 450 mg tid, p 0.33): -1.11e+09 L⁻¹
